Publication PMC8306139, “A Novel Dialkylamino-Functionalized Chalcone, DML6, Inhibits Cervical Cancer Cell Proliferation, In Vitro, via Induction of Oxidative Stress, Intrinsic Apoptosis and Mitotic Catastrophe” (Molecules, 2021)
Like-named read-outs stand apart in the source and are kept apart here.

How the values were obtained:
cancer cell lines = experiment: MTT assay, panel of cancer cell lines; type: cell-based
Description: (§2) The concentration of the tested compounds that produced a 50% inhibition of cell growth (IC50) was determined.
(§3) A panel of cancer cell lines, including cervical (OV2008 and HeLa), breast (MDA-MB-231), lung (A549) and colon (LOVO), prostate (DU145), human embryonic kidney cells (HEK293), human colon fibroblast cells (CRL1459), and Chinese hamster ovary cells (CHO), were grown as adherent monolayers in flasks containing Dulbecco’s modified Eagle medium (DMEM), supplemented with 10% fetal bovine serum (FBS) and 1% penicillin and streptomycin, in a humidified incubator with 5% CO2 at 37 °C.
The cells were seeded evenly (180 μL/well) in 96-well plates, at a density of 3000–5000 cells/well and incubated with serial dilutions of the compounds ranging from 0.1 to 100 μM. The MTT dye (4 mg/ml) was added after 72 h of incubation and incubated with the cells for an additional 4 h at 37 °C, allowing the viable cells to biotransform the yellow-colored MTT into dark-blue formazan crystals. Following incubation, the medium was aspirated, and the formazan crystals were dissolved by adding 100 μL of DMSO to each well. Cytation™ 5 and Cytation™ 7 multi-mode detector (Bio Tek Instruments, Winooski, VT, USA) was used to determine the absorbance readings at a wavelength of 570 nm. The IC50 values were determined based on 3 separate experiments, with each experiment carried out in triplicate. The selectivity of the compounds was determined by comparing their IC50 values in cervical cancer compared to the normal epithelial cell lines, HEK293, CHO, and CRL1459.

OV2008 cells [1] = experiment: IncuCyte Cytotox green assay; type: cell-based; details: OV2008, up to 72 h, vs vehicle
Source text: The IncuCyte cytotox green reagent (Catalog # 4633, Essence BioScience, Ann Arbour, MI, USA) was used for real time quantification of dead OV2008 cells as previously described. This dye will only penetrate into cells with non-intact membranes (dead or non-viable cells). As the cells die, the increase in cell membrane permeability allows the reagent to enter the nucleus and bind to DNA, which emits green fluorescence at an excitation maximum of 491 nm and emission maximum of 509 nm. OV2008 cells were seeded (100 µL/well) in a 96-well plate and incubated overnight. The following day, DML6 (0.1–100 μM) was prepared at 3X the final assay concentrations in diluted IncuCyte™ Cytotox Reagent and added to each well (50 µL/well). The cells were immediately placed in the IncuCyte® S3 Live-Cell Analysis System (Essen BioScience, Ann Arbor, MI, USA) and images were taken every 2 h up to 72 h and analyzed using the integrated IncuCyte S3 software version 2020B (Essen BioScience, Ann Arbor, MI, USA).

caspase-7 = experiment: Western blot, cleaved caspase-7; type: cell-based; details: OV2008, 5 or 20 µM, vs vehicle
Description: (§1) The OV2008 cells were lysed to obtain total cellular protein fractions using Mammalian Protein Extraction Reagent (Catalog # 78501, M-PER™, Thermo Fisher Scientific, Waltham, MA, USA). The cells were seeded in […] at a density of 1 × 10^6 and incubated with 5 or 20 µM of DML6 or 1 µM of doxorubicin (Catalog # T1-2-, TargetMol, Boston, MA, USA) (a positive control) for 24 h. The following day, the cells were washed with ice-cold PBS, scraped using a cell scrapper and collected in Eppendorf tubes. The tubes were centrifuged at 1500 RPM at 4 °C for 5 min. The solution was discarded and replaced with 70 µL of the cell lysis buffer (M-PER reagent, 100 mM Sodium Orthovanadate (NaOV) at a final concentration of 2.5 mM) and a 100X protease inhibitor cocktail (Catalog # P8340, Sigma-Aldrich, St. Louis, MO, USA, final concentration of 1X, containing of aprotinin, bestatin, E-64, leupeptin and pepstatin). Thirty minutes later, the resulting solution was centrifuged at 10,000 RPM at 4 °C for 5 min and the supernatant was collected. The protein concentration of the cell extracts was determined using the bicinchoninic acid (BCA) (Catalog # 786-570, G-Biosciences, Saint Louis, MO, USA) quantification assay. […] Finally, the amount of protein in each blot was quantified using the Image J software (NIH, Bethesda, MD, USA). All data were calculated as a ratio to β-actin.

LOVO = experiment: MTT assay, LOVO; type: cell-based; details: Homo sapiens, LoVo, 72 h, read-out: IC50 ± SD Colon LOVO
Description: as §2, §3
(§4) The cells were seeded evenly (180 μL/well) in 96-well plates, at a density of 3000–5000 cells/well and incubated with serial dilutions of the compounds ranging from 0.1 to 100 μM. The MTT dye (4 mg/ml) was added after 72 h of incubation and incubated with the cells for an additional 4 h at 37 °C, allowing the viable cells to biotransform the yellow-colored MTT into dark-blue formazan crystals. Following incubation, the medium was aspirated, and the formazan crystals were dissolved by adding 100 μL of DMSO to each well. Cytation™ 5 and Cytation™ 7 multi-mode detector (Bio Tek Instruments, Winooski, VT, USA) was used to determine the absorbance readings at a wavelength of 570 nm. The IC50 values were determined based on 3 separate experiments, with each experiment carried out in triplicate.

caspase-9 = experiment: Western blot, cleaved caspase-9; type: cell-based; details: OV2008, 20 μM, 24 hours, vs vehicle
Description: as §1

[2] = system: human colon fibroblast cells (CRL1459); experiment: MTT assay, CRL1459; type: cell-based; details: 72 h
Description: as §2, §3
The cells were seeded evenly (180 μL/well) in 96-well plates, at a density of 3000–5000 cells/well and incubated with serial dilutions of the compounds ranging from 0.1 to 100 μM. […] Cytation™ 5 and Cytation™ 7 multi-mode detector (Bio Tek Instruments, Winooski, VT, USA) was used to determine the absorbance readings at a wavelength of 570 nm. The IC50 values were determined based on 3 separate experiments, with each experiment carried out in triplicate. The selectivity of the compounds was determined by comparing their IC50 values in cervical cancer compared to the normal epithelial cell lines, HEK293, CHO, and CRL1459.

OV2008 cells [3] = experiment: Nuclear staining with Hoechst dye; type: cell-based
Description: Nuclear fragmentation and chromatin condensation were detected using the Hoechst 33258 DNA dye as previously described. OV2008 cells were seeded at a density of 250,000 cells/mL in 6-well plates and incubated overnight at 37 °C. The next day, the cells were incubated with the vehicle (DMEM media with 10% FBS and 1% penicillin and streptomycin), 5 or 20 μM of DML6 and further incubated overnight at 37 °C. The cells were fixed and stained with the Hoechst 33258 DNA dye for at least 30 min. The stained nucleus fluorescence was detected using an EVOS digital microscope at wavelengths of 460–490 nm.

A549 = experiment: MTT assay, A549; type: cell-based; details: Homo sapiens, A549, 72 h, read-out: IC50 ± SD Lung A549
Description: as §2, §3, §4

HEK293 = experiment: MTT assay, HEK293; type: cell-based, human; details: read-out: IC50 ± SD Kidney HEK293
Description: as §2, §3, §4

OV2008 cells [4] = experiment: IncuCyte live-cell morphology study (confluence); type: cell-based; details: 72 hours, vehicle ≈70%
Description: Real-time live cell analysis was performed as previously described. In order to determine the morphological changes induced by DML6, OV2008 cells were seeded at 4000 cells/well in a 96-well plate and incubated overnight at 37 °C, with 5% CO2 in an incubator. […] IncuCyte was then programmed to capture the images at different time points (0, 24, 48 and 72 h), using the integrated IncuCyte S3 software version 2020B (Essen BioScience, Ann Arbor, MI, USA).

`CN(C)c1ccc(/C=C/C(=O)c2ccc(Cl)cc2Cl)cc1` [DML6, (E)-1-[2,4-dichlorophenyl]-3-(4-(dimethylamino)phenyl)prop-2-en-1-one] was tested, and the “anti-proliferative efficacy in a wide range of cancer cell lines, compared to normal cells” value (cancer cell lines) was “moderate to good anti-proliferative efficacy”, the IC50 (cancer cell lines; range over the cell lines, read-out: IC50 values in all of the cancer cell lines) was 7.8 to 91.9 µM and the “Cytotox green fluorescent signal (dead cells) over time” value (OV2008 cells [1]) was “increased significantly”. The “cleavage (activation) of caspase-7” value (caspase-7) was “significantly increased the cleavage”, the IC50 (LOVO) was 65 ± 49.5 µM and the “cleavage of initiator caspase-9” value (caspase-9) was “induced the cleavage”. The “cytotoxicity in normal cells, CRL1459” value [2] was “did not produce significant cytotoxicity”, the nuclear morphology (OV2008 cells [3]; 5 μM, 24 h) was “increased the number of cells with condensed, fragmented nuclei” and the nuclear morphology (OV2008 cells [3]; 20 µM) was “decondensed, multiple micronuclei and some single, highly condensed nuclei”. For the same compound, the “percentage of apoptotic nuclei” value (OV2008 cells [3]; 5 and 20 μM, vs vehicle) was “significantly higher”, the IC50 (A549) was 84.9 ± 21.4 µM and the IC50 (HEK293; 72 h) was 70 ± 42.4 µM. For the same compound, the IC50 (HEK293; Homo sapiens, HEK293, 72 h) was > 65 µM, the “confluence of OV2008” value (OV2008 cells [4]; 5 µM) was “≈ 40%” and the “confluence of OV2008” value (OV2008 cells [4]; 20 µM) was “≈ 10%”.
